This is an account of results in patent US9399646B2 (Genentech, Inc., priority 2010, dated 2016).

One experiment has as its system MCF-7 cells. The experiment in a line: Breast cancer cell viability assay (CellTiter-Glo, 5 days). Type of experiment: cell-based. As to conditions: 5 days' compound exposure; for IC50: Homo sapiens, MCF7, 120 h. In outline: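 MCF-7 cells, 320 per well in RPMI with 10% FBS and 20 mM HEPES, adhered overnight, then exposed 5 days to an eleven-point semilog dilution (final 0.3-0.000003 μM). CellTiter-Glo luminescence read; % viability = (sample − cell-free background)/(untreated − background) × 100.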

For another experiment, the target named is T1, ER-α in MCF-7 cells (Homo sapiens, UniProt P03372).
T1 sequence (P03372 1-595): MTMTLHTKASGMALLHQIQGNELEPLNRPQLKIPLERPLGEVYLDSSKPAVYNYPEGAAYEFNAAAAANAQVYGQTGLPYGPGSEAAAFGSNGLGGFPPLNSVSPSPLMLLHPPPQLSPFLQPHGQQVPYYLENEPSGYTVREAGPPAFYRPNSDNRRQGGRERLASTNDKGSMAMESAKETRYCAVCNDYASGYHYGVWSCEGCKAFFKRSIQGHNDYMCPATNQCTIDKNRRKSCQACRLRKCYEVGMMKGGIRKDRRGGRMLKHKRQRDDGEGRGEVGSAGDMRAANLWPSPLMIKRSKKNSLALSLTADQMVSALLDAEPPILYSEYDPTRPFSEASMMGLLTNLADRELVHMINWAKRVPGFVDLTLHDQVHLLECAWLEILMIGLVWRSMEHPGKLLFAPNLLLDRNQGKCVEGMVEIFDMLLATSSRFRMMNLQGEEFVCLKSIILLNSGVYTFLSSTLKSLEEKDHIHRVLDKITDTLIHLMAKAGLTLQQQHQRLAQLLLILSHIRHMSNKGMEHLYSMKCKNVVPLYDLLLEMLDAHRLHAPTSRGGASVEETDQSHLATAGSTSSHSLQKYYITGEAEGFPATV
The experiment in a line: Breast cancer cell ER-α in cell western assay (SP1). Format: cell-based. On the set-up: endogenous in cells; host or cells: MCF-7. As to conditions: 4 or 24 hr post compound addition; for Emax: MCF7, SP1 antibody, read-out: ER-α In Cell Western Assay (SP1) Max Response; for DC50: SP1 antibody, read-out: ER-α In Cell Western Assay (SP1) IC50. In outline:
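MCF-7, charcoal-stripped FBS/RPMI, 3200 cells/well, adhered overnight. Formalin fix, SP1 Ab o/n 4 °C, IRDye 800CW + DRAQ5; % ER = 800/700 ratio vs untreated.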

As a reminder, the IC50 is the concentration at which inhibition is half-maximal. High values mean lower potency, low ones higher potency. Turning to `CC/C(=C(/c1ccc(/C=C/c2nn[nH]n2)cc1)c1ccc2[nH]ncc2c1)c1ccccc1` [Compound 442, 5-((E)-1-(4-((E)-2-(2H-Tetrazol-5-yl)vinyl)phenyl)-2-phenylbut-1-en-1-yl)-1H-indazole], in the experiment on MCF-7 cells, the “MCF7 Viability Assay Max Response” value is “++ (++ = a single % value ≧ 40%)” and the IC50 was not above 100 nM. On ER-α in MCF-7 cells, the Emax is not below 40% and the DC50 is not above 100 nM.

Take `CC/C(=C(/c1ccc(/C=C/C(=O)O)cc1)c1ccc2[nH]ncc2c1)c1ccc2nccn2c1` [Compound 260, (E)-3-(4-((E)-2-(Imidazo[1,2-a]pyridin-6-yl)-1-(1H-indazol-5-yl)but-1-en-1-yl)phenyl)acrylic acid]: in the experiment with MCF-7 cells, the “MCF7 Viability Assay Max Response” value was “+ (+ = a single % value < 40%)” and the concentration for half-maximal inhibition (IC50) is more than 100 nM. Moreover, at ER-α in MCF-7 cells, the Emax is less than 40% and the DC50 is more than 100 nM.

In the case of `CC/C(=C(/c1ccc(/C=C/C(=O)O)cc1)c1ccc2scnc2c1)c1ccccc1` [Compound 141, (E)-3-(4-((E)-1-(Benzo[d]thiazol-5-yl)-2-phenylbut-1-en-1-yl)phenyl)acrylic acid], in the experiment on MCF-7 cells, the “MCF7 Viability Assay Max Response” value is given as “++ (++ = a single % value ≧ 40%)” and the IC50 is not above 100 nM. Besides, on ER-α in MCF-7 cells, the Emax is not below 40% and the DC50 was not above 100 nM.

`CC/C(=C(/c1ccc(/C=C/C(=O)O)cc1)c1ccc2[nH]ncc2c1)c1cccc(Oc2ccccc2S(C)(=O)=O)c1` [Compound 374, (E)-3-(4-((E)-1-(1H-Indazol-5-yl)-2-(3-(2-(methylsulfonyl)phenoxy)phenyl)but-1-en-1-yl)phenyl)acrylic acid]: in the experiment on MCF-7 cells, the “MCF7 Viability Assay Max Response” value is “++ (++ = a single % value ≧ 40%)” and the IC50 is more than 100 nM. At ER-α in MCF-7 cells, the Emax is not below 40% and the DC50 was more than 100 nM.

Regarding `CC/C(=C(/c1ccc(/C=C/C(=O)O)cc1)c1ccc(O)nc1)c1ccccc1` [Compound 152, (E)-3-(4-((E)-1-(6-Hydroxypyridin-3-yl)-2-phenylbut-1-en-1-yl)phenyl)acrylic acid], in the experiment with MCF-7 cells, the “MCF7 Viability Assay Max Response” value is reported as “+ (+ = a single % value < 40%)” and the IC50 is more than 100 nM. Moreover, the Emax on ER-α in MCF-7 cells was not below 40%.

Regarding `CC/C(=C(/c1ccc(/C=C/C(=O)O)cc1)c1ccc2c(cnn2C(=O)C(C)(C)C)c1)c1ccc(F)cc1Cl` [Compound 405, (E)-3-(4-((E)-2-(2-Chloro-4-fluorophenyl)-1-(1-pivaloyl-1H-indazol-5-yl)but-1-en-1-yl)phenyl)acrylic acid], in the experiment on MCF-7 cells, the “MCF7 Viability Assay Max Response” value is listed as “++ (++ = a single % value ≧ 40%)” and the IC50 was not above 100 nM. At ER-α in MCF-7 cells, the Emax is not below 40% and the DC50 was not above 100 nM.

Take `CC/C(=C(/c1ccc(/C=C/C(=O)O)cc1)c1ccc2[nH]ncc2c1)c1ccc2sncc2c1` [Compound 314, (E)-3-(4-((E)-2-(Benzo[d]isothiazol-5-yl)-1-(1H-indazol-5-yl)but-1-en-1-yl)phenyl)acrylic acid]: in the experiment with MCF-7 cells, the “MCF7 Viability Assay Max Response” value is listed as “++ (++ = a single % value ≧ 40%)” and the IC50 is not above 100 nM. At ER-α in MCF-7 cells, the Emax is not below 40% and the DC50 was not above 100 nM.

Take `CC/C(=C(/c1ccc(/C=C/C(=O)O)cc1)c1cc2ccccc2o1)c1ccc(F)cc1Cl` [Compound 169, (E)-3-(4-((E)-1-(Benzofuran-2-yl)-2-(2-chloro-4-fluorophenyl)but-1-en-1-yl)phenyl)acrylic acid]: in the experiment with MCF-7 cells, the “MCF7 Viability Assay Max Response” value is “++ (++ = a single % value ≧ 40%)” and the IC50 is not above 100 nM. For the same compound, at ER-α in MCF-7 cells, the Emax was not below 40% and the DC50 was not above 100 nM.

`CC/C(=C(/c1ccc(/C=C/C(=O)O)cc1)c1ccc2[nH]ncc2c1)c1cnnn1C` [Compound 221, (E)-3-(4-((E)-1-(1H-Indazol-5-yl)-2-(1-methyl-1H-1,2,3-triazol-5-yl)but-1-en-1-yl)phenyl)acrylic acid]: in the experiment with MCF-7 cells, the “MCF7 Viability Assay Max Response” value is on record as “+ (+ = a single % value < 40%)” and the IC50 is more than 100 nM. Moreover, at ER-α in MCF-7 cells, the Emax was less than 40% and the DC50 is more than 100 nM.
